“And” between values parts separate entries of the source, which are not always exact repeats. Identical values can stand only once. Inconclusive results and toxic doses are left out.
Test system: P388 leukemia ip, CD2F1 mice, survival T/C
Experiment: NCI In Vivo Anticancer Drug Screen. Data for tumor model P388 Leukemia (intraperitoneal) in CD2F1 (CDF1) mice
Conditions: endpoint: median survival time, higher = longer survival
How it was run: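 Mice carrying the transplanted tumor received test compound or vehicle. Survival was recorded in each group, and the value is the treated-group measurement divided by that of the vehicle-treated control group.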

[1] = dose: 12.5 mg/kg/injection, schedule: Q01DX009 (ip), vehicle: distilled water + Tween-80
[2] = dose: 25.0 mg/kg/injection, schedule: Q01DX009 (ip), vehicle: distilled water + Tween-80
[3] = dose: 100.0 mg/kg/injection, schedule: Q04DX003 (ip), vehicle: Klucel (hydroxypropylcellulose) (HPC)

With `CC1(C)N=C(N)N=C(N)N1c1ccc(CCCCc2ccc(S(=O)(=O)F)cc2Cl)c(Cl)c1` the T/C (dose: 0.13 mg/kg/injection, schedule: Q03HX016 (ip), vehicle: other) was 107 % of control, the T/C (dose: 0.25 mg/kg/injection, schedule: Q03HX016 (ip), vehicle: other) was 116 % of control and the T/C (dose: 0.5 mg/kg/injection, schedule: Q03HX016 (ip), vehicle: other) was 124 % of control. The T/C (dose: 1.0 mg/kg/injection, schedule: Q01DX005 (ip), vehicle: other) was 111 % of control, the T/C (dose: 1.98 mg/kg/injection, schedule: Q01DX009 (ip), vehicle: saline with Tween-80) was 165 % of control and the T/C (dose: 2.0 mg/kg/injection, schedule: Q01DX005 (ip), vehicle: other) was 120 % of control. For the same compound, the T/C (dose: 2.0 mg/kg/injection, schedule: Q04DX002 (ip), vehicle: other) was 109 % of control, the T/C (dose: 2.82 mg/kg/injection, schedule: Q01DX009 (ip), vehicle: saline with Tween-80) was 168 % of control and the T/C (dose: 3.89 mg/kg/injection, schedule: Q01DX009 (ip), vehicle: Klucel (hydroxypropylcellulose) (HPC)) was 152 % of control and 163 % of control. The T/C (dose: 4.0 mg/kg/injection, schedule: Q01DX005 (ip), vehicle: other) was 121 % of control, the T/C (dose: 4.0 mg/kg/injection, schedule: Q04DX002 (ip), vehicle: other) was 118 % of control and the T/C (dose: 4.03 mg/kg/injection, schedule: Q01DX009 (ip), vehicle: saline with Tween-80) was 176 % of control. For the same compound, the T/C (dose: 5.76 mg/kg/injection, schedule: Q01DX009 (ip), vehicle: saline with Tween-80) was 176 % of control, the T/C (dose: 6.25 mg/kg/injection, schedule: Q01DX009 (ip), vehicle: distilled water + Tween-80) was 155 % of control and the T/C (dose: 6.25 mg/kg/injection, schedule: Q01DX009 (ip), vehicle: saline with Tween-80) was 163 % of control. For the same compound, the T/C (dose: 6.48 mg/kg/injection, schedule: Q01DX009 (ip), vehicle: Klucel (hydroxypropylcellulose) (HPC)) was 164 % of control, the T/C (dose: 8.0 mg/kg/injection, schedule: Q01DX005 (ip), vehicle: other) was 119 % of control and the T/C (dose: 8.0 mg/kg/injection, schedule: Q04DX002 (ip), vehicle: other) was 116 % of control. The T/C (dose: 8.23 mg/kg/injection, schedule: Q01DX009 (ip), vehicle: saline with Tween-80) was 197 % of control, the T/C (dose: 8.64 mg/kg/injection, schedule: Q01DX005 (ip), vehicle: Klucel (hydroxypropylcellulose) (HPC)) was 156 % of control and the T/C (dose: 10.8 mg/kg/injection, schedule: Q01DX009 (ip), vehicle: Klucel (hydroxypropylcellulose) (HPC)) was 166 % of control and 182 % of control. For the same compound, the T/C (dose: 11.76 mg/kg/injection, schedule: Q01DX009 (ip), vehicle: saline with Tween-80) was 212 % of control, the T/C [1] was 155 % of control and the T/C (dose: 16.0 mg/kg/injection, schedule: Q01DX005 (ip), vehicle: other) was 118 % of control. For the same compound, the T/C (dose: 16.0 mg/kg/injection, schedule: Q04DX002 (ip), vehicle: other) was 106 % of control, the T/C (dose: 16.8 mg/kg/injection, schedule: Q01DX009 (ip), vehicle: other) was 100 % of control and the T/C (dose: 16.8 mg/kg/injection, schedule: Q01DX009 (ip), vehicle: saline with Tween-80) was 250 % of control. For the same compound, the T/C (dose: 18.0 mg/kg/injection, schedule: Q01DX009 (ip), vehicle: Klucel (hydroxypropylcellulose) (HPC)) was 163 % of control and 214 % of control, the T/C (dose: 24.0 mg/kg/injection, schedule: Q01DX005 (ip), vehicle: Klucel (hydroxypropylcellulose) (HPC)) was 164 % of control and the T/C (dose: 24.0 mg/kg/injection, schedule: Q01DX009 (ip), vehicle: saline with Tween-80) was 256 % of control. The T/C [2] was 160 % of control, the T/C (dose: 25.0 mg/kg/injection, schedule: Q01DX009 (oral), vehicle: saline with Tween-80) was 102 % of control and the T/C (dose: 30.0 mg/kg/injection, schedule: Q01DX009 (ip), vehicle: Klucel (hydroxypropylcellulose) (HPC)) was 163 % of control and 236 % of control. The T/C (dose: 32.0 mg/kg/injection, schedule: Q04DX002 (ip), vehicle: other) was 111 % of control, the T/C (dose: 34.28 mg/kg/injection, schedule: Q01DX009 (ip), vehicle: saline with Tween-80) was 228 % of control and the T/C (dose: 40.0 mg/kg/injection, schedule: Q01DX005 (ip), vehicle: Klucel (hydroxypropylcellulose) (HPC)) was 172 % of control. The T/C (dose: 50.0 mg/kg/injection, schedule: Q01DX009 (ip), vehicle: Klucel (hydroxypropylcellulose) (HPC)) was 87 % of control, the T/C (dose: 50.0 mg/kg/injection, schedule: Q01DX009 (oral), vehicle: saline with Tween-80) was 102 % of control and the T/C (dose: 75.0 mg/kg/injection, schedule: Q01DX009 (ip), vehicle: saline with Tween-80) was 195 % of control. For the same compound, the T/C (dose: 89.0 mg/kg/injection, schedule: Q04DX003 (ip), vehicle: saline with Tween-80) was 173 % of control, the T/C (dose: 100.0 mg/kg/injection, schedule: Q01DX009 (oral), vehicle: saline with Tween-80) was 107 % of control and the T/C (dose: 110.0 mg/kg/injection, schedule: Q01DX009 (ip), vehicle: saline with Tween-80) was 86 % of control. The T/C (dose: 133.0 mg/kg/injection, schedule: Q04DX003 (ip), vehicle: saline with Tween-80) was 188 % of control, the T/C (dose: 200.0 mg/kg/injection, schedule: Q01DX009 (oral), vehicle: saline with Tween-80) was 105 % of control and the T/C (dose: 200.0 mg/kg/injection, schedule: Q04DX003 (ip), vehicle: saline with Tween-80) was 307 % of control. For the same compound, the T/C (dose: 400.0 mg/kg/injection, schedule: Q01DX009 (oral), vehicle: saline with Tween-80) was 99 % of control.
`O=Nc1c(O)c(Cl)cc2ccccc12` was tested, and the T/C (dose: 3.12 mg/kg/injection, schedule: Q01DX005 (ip), vehicle: saline with Tween-80) was 101 % of control and the T/C (dose: 6.25 mg/kg/injection, schedule: Q01DX005 (ip), vehicle: saline with Tween-80) was 103 % of control.
For `CN(O)C(=O)CN`, the T/C (dose: 50.0 mg/kg/injection, schedule: Q01DX005 (ip), vehicle: saline with Tween-80) was 102 % of control, the T/C (dose: 100.0 mg/kg/injection, schedule: Q01DX005 (ip), vehicle: saline with Tween-80) was 102 % of control and the T/C (dose: 200.0 mg/kg/injection, schedule: Q01DX005 (ip), vehicle: saline with Tween-80) was 98 % of control. The T/C (dose: 400.0 mg/kg/injection, schedule: Q01DX005 (ip), vehicle: saline with Tween-80) was 100 % of control.
With `CC(C)C(C)C(O)C(O)C(C)C1CCC2C3COC(=O)C4CC(O)C(O)CC4(C)C3CCC12C` (stereo not drawn) the T/C (dose: 0.75 mg/kg/injection, schedule: Q01DX009 (ip), vehicle: saline with Tween-80) was 106 % of control, the T/C (dose: 1.05 mg/kg/injection, schedule: Q01DX009 (ip), vehicle: saline with Tween-80) was 98 % of control and the T/C (dose: 1.5 mg/kg/injection, schedule: Q01DX009 (ip), vehicle: saline with Tween-80) was 112 % of control. The T/C (dose: 2.1 mg/kg/injection, schedule: Q01DX009 (ip), vehicle: saline with Tween-80) was 103 % of control, the T/C (dose: 3.0 mg/kg/injection, schedule: Q01DX009 (ip), vehicle: saline with Tween-80) was 99 % of control and the T/C (dose: 4.2 mg/kg/injection, schedule: Q01DX009 (ip), vehicle: saline with Tween-80) was 100 % of control. The T/C (dose: 6.0 mg/kg/injection, schedule: Q01DX009 (ip), vehicle: saline with Tween-80) was 103 % of control.
`CC(CCCN(CCCl)CCCl)Nc1ccnc2cc(Cl)ccc12` (stereo not drawn) was tested, and the T/C (dose: 0.12 mg/kg/injection, schedule: Q01DX009 (ip), vehicle: saline + alcohol) was 100 % of control, the T/C (dose: 0.5 mg/kg/injection, schedule: Q01DX009 (ip), vehicle: saline sonified) was 155 % of control and the T/C (dose: 0.66 mg/kg/injection, schedule: Q01DX009 (ip), vehicle: saline) was 159 % of control. The T/C (dose: 1.0 mg/kg/injection, schedule: Q01DX009 (ip), vehicle: saline sonified) was 155 % of control, the T/C (dose: 1.5 mg/kg/injection, schedule: Q01DX009 (ip), vehicle: saline) was 159 % of control and the T/C (dose: 2.0 mg/kg/injection, schedule: Q01DX009 (ip), vehicle: saline sonified) was 105 % of control.
`COc1ccc(/C=C(\C)[N+](=O)[O-])cc1OC` was tested, and the T/C [1] was 100 % of control, the T/C [2] was 121 % of control and the T/C (dose: 50.0 mg/kg/injection, schedule: Q01DX009 (ip), vehicle: distilled water + Tween-80) was 115 % of control. The T/C (dose: 100.0 mg/kg/injection, schedule: Q01DX009 (ip), vehicle: distilled water + Tween-80) was 115 % of control.
In the case of `CCN(CC)C(=S)SS(C)(=O)=O`, the T/C (dose: 25.0 mg/kg/injection, schedule: Q04DX003 (ip), vehicle: Klucel (hydroxypropylcellulose) (HPC)) is reported as 99 % of control, the T/C (dose: 50.0 mg/kg/injection, schedule: Q04DX003 (ip), vehicle: Klucel (hydroxypropylcellulose) (HPC)) is reported as 107 % of control and the T/C [3] is reported as 107 % of control.
In the case of `N#CCCN(CCC#N)c1ccc(/C=C2/C=C(c3ccccc3)OC2=O)cc1`, the T/C (dose: 100.0 mg/kg/injection, schedule: Q01DX001 (ip), vehicle: saline with Tween-80) is reported as 97 % of control, the T/C (dose: 200.0 mg/kg/injection, schedule: Q01DX001 (ip), vehicle: saline with Tween-80) is reported as 94 % of control and the T/C (dose: 400.0 mg/kg/injection, schedule: Q01DX001 (ip), vehicle: saline with Tween-80) is reported as 90 % of control.
In the case of `O=C(Nc1ccc(N=C=S)cc1Cl)c1ccc2ccccc2c1O`, the T/C [3] is reported as 101 % of control and 105 % of control, the T/C (dose: 200.0 mg/kg/injection, schedule: Q04DX003 (ip), vehicle: Klucel (hydroxypropylcellulose) (HPC)) is reported as 100 % of control and 106 % of control and the T/C (dose: 400.0 mg/kg/injection, schedule: Q04DX003 (ip), vehicle: Klucel (hydroxypropylcellulose) (HPC)) is reported as 110 % of control and 123 % of control.
